# Laboratory results taken from patent publication US4321274A, “Substituted 1-(cinnamylideneamino)-3-benzyli-deneaminoguanidines active against Giardia lamblia and Trichomonas vaginalis” (priority 1980, dated 1982).
# Read-outs that look alike come from different tables or passages of the source.
# Assays:
# [1] = test system: Giardia lamblia; assay: In vitro anti-G. lamblia activity (50% inhibition of growth, viable cell count); assay type: cell-based; details: Giardia duodenalis, 37° C., anaerobic, about 16-24 hrs (Example 1: 24 hours), vs DMSO controls, read-out: Anti-G. lamblia ED50
# Description: (§1) About 1.0-2.0 ml of a nutrient medium, for example, the modified Diamond's TPS medium at pH 7.05, together with about 10% by volume of heat-inactivated serum and about 1% by volume of antibiotic-antimycotic solution is placed in each well of a multiwell plate. To this mixture, an aliquot of a suspension of G. lamblia cells containing about […] is added. Subsequently, each well is inoculated with a known concentration of one of the active compounds, for example, 1-(3,4-dichlorocinnamylideneamino)-3-(4-cyanobenzylideneamino)guanidine. The multiwell plate containing the individual culture samples is incubated under anaerobic conditions at about 37° C. for about 16-24 hrs. The number of viable cells remaining in each well are then counted, such as with a hemacytometer. The percentage of survival is determined by comparison to controls inoculated with DMSO (dimethylsulfoxide) and the effective concentration (in parts per million) for 50% inhibition of growth (ED50) is determined. It is established that the lower the number of the value of ED50, the higher the activity of the active compound.
# In each well of a multiwell plate is placed 1.4 ml of media mix containing Diamond's TPS medium (see Table 2) at pH 7.05, 10% by volume of heat-inactivated fetal bovine serum, and 1% by volume of an antibiotic-antimycotic solution (see Table 3). A suspension of Giardia lamblia is centrifuged at 2,500 xg. for 6 minutes. The cells are resuspended in a small volume of the Diamond's medium, counted, and each well inoculated with approximately 10^6 organisms. A stock solution of 1-(4-chlorocinnamylideneamino)-3-(3,4-dichlorobenzylideneamino)guanidine in dimethylsulfoxide is made at a concentration of 150 μg/ml. The wells are then inoculated with various concentrations of the drug. The plates are incubated for 24 hours at 37° C. in an anaerobic Gas Pak jar. After 24 hours of incubation each well is mixed and counted for viable organisms using a hemacytometer. The percentage of survival is determined by comparing the treated wells to controls treated with dimethylsulfoxide.
# Employing substantially the similar procedure as described in Example 1 but substituting for 1-(4-chlorocinnamylideneamino)-3-(3,4-dichlorobenzylideneamino)guanidine used therein other active compounds, there are obtained similar results indicating the anti- G. lamblia activities of the compounds included above in Table 1.
# [2] = test system: animals; details: cited from earlier work
# [3] = test system: Trichomonas vaginalis; details: has been reported; cited from earlier work
# [4] = test system: Giardia lamblia; details: New York Times, June 10, 1980; cited from earlier work
# [5] = cited from earlier work
# [6] = test system: T. vaginalis 30001; assay: In vitro anti-T. vaginalis activity (50% inhibition of growth); assay type: cell-based, Trichomonas vaginalis; details: for IC50: Trichomonas vaginalis
# Description: The activity of these compounds against Giardia lamblia and Trichomonas vaginalis are shown by the following test:
# as §1
# Employing essentially the same method of Example 1, centrifuged cells of T. vaginalis 30001 are inoculated with 1-(4-chlorocinnamylideneamino)-3-(3,4-dichlorobenzylideneamino)guanidine at 37° C. for 24 hours.
# Similarly, previously described compounds (2) to (10) and the pharmaceutically acceptable salts thereof an active anti- T. vaginalis agents as shown in Table 1.
# [7] = in vitro, 37° C., 24 hours, Table 1, read-out: Anti-T. vaginalis ED50
SMILES,IC50 [1],"IC50 [6, 7]",other results
O=C1OCCN1/N=C/c1ccc([N+](=O)[O-])o1 [furazolidone],,,"treatment of giardiasis [4]: successfully treated; adverse side effects ([5]; New York Times, June 10, 1980): known to cause adverse side effects"
"CN(N=Cc1ccc(Cl)cc1)C(=N)NN=CC=Cc1ccc(C(F)(F)F)cc1 [(2), 1-(4-trifluoromethylcinnamylideneamino)-3-(4-chlorobenzylideneamino)-3-methylguanidine]",0.8 µg/mL,2.75 µg/mL,
CCN(CC)CCCC(C)Nc1c2ccc(Cl)cc2nc2ccc(OC)cc12 (stereo not shown) [Atabrine],,,treatment of giardiasis [4]: successfully treated; adverse side effects ([5]; in vivo): known to cause adverse side effects
"CN(N=Cc1ccc(C(F)(F)F)cc1)C(=N)NN=CC=Cc1ccc(C#N)cc1 [(5), 1-(4-cyanocinnamylideneamino)-3-(4-trifluoromethylbenzylideneamino)-3-methyl-guanidine]",1.5 µg/mL,3.25 µg/mL,
"CN(N=Cc1ccc(Cl)cc1)C(=N)NN=CC=Cc1ccc(Cl)c(Cl)c1 [(4), 1-(3,4-dichlorocinnamylideneamino)-3-(4-chlorobenzylideneamino)-3-methyl-guanidine]",0.58 µg/mL,2.5 µg/mL,
"N=C(NN=CC=Cc1ccc(Cl)cc1)NN=Cc1ccc(Cl)c(Cl)c1 [(1), 1-(4-chlorocinnamylideneamino)-3-(3,4-dichlorobenzylideneamino)guanidine]",1.1 µg/mL,,"IC50 ([6]; Example 2, 37° C. for 24 hours, unit inferred, read-out: ED50 value, anti-T. vaginalis): 2.25 µg/mL; anti-T. vaginalis activity in words ([6]; in vitro, method of Example 1/2): effective anti- T. vaginalis agent"
"CN(N=Cc1ccc(Cl)cc1)C(=N)NN=CC=Cc1ccc(C#N)cc1 [(3), 1-(4-cyanocinnamylideneamino)-3-(4-chlorobenzylideneamino)-3-methyl-guanidine]",0.85 µg/mL,3.25 µg/mL,
"CN(N=Cc1ccc(C(F)(F)F)cc1)C(=N)NN=CC=Cc1ccc(Cl)c(Cl)c1 [(6), 1-(3,4-dichlorocinnamylideneamino)-3-(4-trifluoromethylbenzylideneamino)-3-methyl-guanidine]",0.73 µg/mL,2.67 µg/mL,

# Now from value to molecule, other results behind:
IC50 [1],"IC50 [6, 7]",SMILES,other results
6.2 µg/mL,< 1 µg/mL,"Cc1ncc([N+](=O)[O-])n1CCO [Flagyl (metronidazole), metronidazole]",carcinogenicity [2]: carcinogenic in animals; therapy of trichomoniasis [3]: Successful therapy; treatment of giardiasis [4]: successfully treated; adverse side effects ([5]; in vivo): known to cause adverse side effects
1.4 µg/mL,2.67 µg/mL,"CN(N=Cc1ccc(Cl)cc1)C(=N)NN=CC=Cc1ccc(Cl)cc1 [(8), 1-(4-chlorocinnamylideneamino)-3-(4-chlorobenzylideneamino)-3-methyl-guanidine]",
1 µg/mL,3.25 µg/mL,"CN(N=Cc1ccc([N+](=O)[O-])cc1)C(=N)NN=CC=Cc1ccc(C(F)(F)F)cc1 [(10), 1-(4-trifluoromethylcinnamylideneamino)-3-(4-nitrobenzylideneamino)-3-methyl-guanidine]",
0.57 µg/mL,1 µg/mL,"N#Cc1ccc(C=NNC(=N)NN=CC=Cc2ccc(Cl)c(Cl)c2)cc1 [(7), 1-(3,4-dichlorocinnamylideneamino)-3-(4-cyanobenzylideneamino)guanidine]",
1.3 µg/mL,2.38 µg/mL,"CN(N=Cc1ccc(C(F)(F)F)cc1)C(=N)NN=CC=Cc1ccc(Cl)cc1 [(9), 1-(4-chlorocinnamylideneamino)-3-(4-trifluoromethylbenzylideneamino)-3-methyl-guanidine]",
